Test results as given in patent publication US7138361B2, “Herbicidal heterocycles” (E. I. du Pont de Nemours and Company, priority 2000, dated 2006).

Key:
Format in all cases: in vivo
[1] = system: giant foxtail (Setaria faberii); assay: Test B preemergence
In short: (§1)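 Ratings on a 0 to 100 visual scale (100 complete control) compare treated plants with controls 13 to 15 days after application. Treatments were pre- or postemergence sprays of compound in non-phytotoxic solvent with surfactant.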

[2] = system: Surinam grass (Brachiaria decumbens); assay: Test B preemergence
In short: as §1

[3] = system: cocklebur (Xanthium strumarium); assay: Test B preemergence
In short: as §1

[4] = system: rice (Oryza saliva); assay: Test B preemergence
In short: as §1

[5] = system: barnyardgrass (Echinochloa crus-galli); assay: Test B preemergence
In short: as §1

[6] = system: velvetleaf (Abutilon theophrasti); assay: Test B preemergence
In short: as §1

[7] = system: pigweed (Amaranthus retroflexus); assay: Test B preemergence
In short: as §1

[8] = system: morning glory (Ipomoea hederacea); assay: Test B preemergence
In short: as §1

[9] = system: crabgrass (Digitaria sanguinalis); assay: Test B preemergence
In short: as §1

[10] = system: corn (Zea mays); assay: Test B preemergence
In short: as §1

[11] = system: lambsquarters (Chenopodium album); assay: Test B preemergence
In short: as §1

[12] = system: giant foxtail (Setaria faberii); assay: Test B postemergence
In short: as §1

[13] = system: Surinam grass (Brachiaria decumbens); assay: Test B postemergence
In short: as §1

[14] = system: cocklebur (Xanthium strumarium); assay: Test B postemergence
In short: as §1

[15] = system: wheat (Triticum aestivum); assay: Test B postemergence
In short: as §1

[16] = system: barnyardgrass (Echinochloa crus-galli); assay: Test B postemergence
In short: as §1

[17] = system: velvetleaf (Abutilon theophrasti); assay: Test B postemergence
In short: as §1

[18] = system: pigweed (Amaranthus retroflexus); assay: Test B postemergence
In short: as §1

[19] = system: morning glory (Ipomoea hederacea); assay: Test B postemergence
In short: as §1

[20] = system: wild oat (Avena fatua); assay: Test B postemergence
In short: as §1

[21] = system: crabgrass (Digitaria sanguinalis); assay: Test B postemergence
In short: as §1

[22] = system: corn (Zea mays); assay: Test B postemergence
In short: as §1

[23] = system: lambsquarters (Chenopodium album); assay: Test B postemergence
In short: as §1

[24] = system: blackgrass (Alopecurus myosuroides); assay: Test B postemergence
In short: as §1

[25] = system: barnyardgrass (Echinochloa crus-galli); assay: Test C flooded paddy test; conditions: for Barnyardgrass plant response rating: Flooded Paddy, scale 0 to 100, 0 no effect, 100 complete control; for Plant response rating, Barnyardgrass / Plant response rating (scale 0 to 100), Barnyardgrass: flooded paddy test; for Plant response rating, Barnyardgrass: scale 0 to 100 (0 no effect, 100 complete control)
In short: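 Rice and three paddy weeds were grown to the 2-leaf stage under flooded conditions, then treated and kept in a greenhouse for 12–14 days. Response was rated visually against untreated controls on a 0–100 scale, where 100 is complete control.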

[26] = system: Sunflower; assay: Test C preemergence; conditions: Rate 62 g/ha, scale 0 to 100
[27] = system: Sunflower; assay: Test C preemergence; conditions: Rate 500 g/ha, visual evaluation after 12 to 14 days
[28] = Preemergence, Rate 500 g/ha, scale 0 to 100, 0 no effect, 100 complete control
[29] = preemergence, Rate 125 g/ha, scale of 0 to 100 where 0 is no effect and 100 is complete control, 13 to 15 days
[30] = Rate 125 g/ha, scale 0 to 100, 0 no effect, 100 complete control
[31] = Rate 500 g/ha, scale 0 (no effect) to 100 (complete control), 13 to 15 days
[32] = Rate 62 g/ha, visually evaluated after 12 to 14 days, 0 = no effect, 100 = complete control
[33] = Rate 500 g/ha, scale 0 to 100, 0 is no effect, 100 is complete control, 13 to 15 days

SMILES: CCC(C)c1ccn(C2CCN(c3ccc(Br)c(OC)c3)C2=O)n1 (stereo not shown) [Compound 142]
- Plant response rating, Foxtail, Giant [1, 28]: 100
- Plant response rating, Foxtail, Giant [1, 29]: 100
- Plant response rating, Surinam grass [2, 28]: 100
- Plant response rating, Surinam grass [2, 29]: 100
- Plant response rating, Cocklebur [3, 28]: 60
- Plant response rating, Cocklebur [3, 29]: 0
- Plant response rating, Rice [4, 28]: 40
- Plant response rating, Rice [4, 29]: 20
- Plant response rating, Barnyardgrass [5, 28]: 100
- Plant response rating, Barnyardgrass [5, 29]: 100
- Plant response rating, Velvetleaf [6, 28]: 90
- Plant response rating, Velvetleaf [6, 29]: 20
- Plant response rating, Pigweed [7, 28]: 100
- Plant response rating, Pigweed [7, 29]: 100
- Plant response rating, Morningglory [8, 28]: 50
- Plant response rating, Morningglory [8, 29]: 20
- Plant response rating, Crabgrass [9, 28]: 100
- Plant response rating, Crabgrass [9, 29]: 100
- Plant response rating, Corn [10, 28]: 20
- Plant response rating, Corn [10, 29]: 0
- Plant response rating, Lambsquarters [11, 28]: 100
- Plant response rating, Lambsquarters [11, 29]: 100
- Plant response rating, Foxtail, Giant [12, 30]: 30
- Plant response rating, Foxtail, Giant [12, 31]: 90
- Plant response rating, Surinam grass [13, 30]: 0
- Plant response rating, Surinam grass [13, 31]: 0
- Plant response rating, Cocklebur [14, 30]: 60
- Plant response rating, Cocklebur [14, 31]: 90
- Plant response rating, Wheat [15, 30]: 0
- Plant response rating, Wheat [15, 31]: 0
- Plant response rating, Barnyardgrass [16, 30]: 0
- Plant response rating, Barnyardgrass [16, 31]: 60
- Plant response rating, Velvetleaf [17, 30]: 40
- Plant response rating, Velvetleaf [17, 31]: 70
- Plant response rating, Pigweed [18, 30]: 60
- Plant response rating, Pigweed [18, 31]: 80
- Plant response rating, Morningglory [19, 30]: 70
- Plant response rating, Morningglory [19, 31]: 100
- Plant response rating, Wild Oat [20, 30]: 0
- Plant response rating, Wild Oat [20, 31]: 0
- Plant response rating, Crabgrass [21, 30]: 40
- Plant response rating, Crabgrass [21, 31]: 60
- Plant response rating, Corn [22, 30]: 0
- Plant response rating, Corn [22, 31]: 30
- Plant response rating, Lambsquarters [23, 30]: 70
- Plant response rating, Lambsquarters [23, 31]: 100
- Plant response rating, Blackgrass [24, 30]: 0
- Plant response rating, Blackgrass [24, 31]: 0
- Barnyardgrass plant response rating ([25]; Rate 500 g/ha): 100
- Plant response rating, Barnyardgrass ([25]; Rate 125 g/ha): 100
- Plant response rating, Barnyardgrass ([25]; Rate 250 g/ha): 100
- Plant response rating (scale 0 to 100), Barnyardgrass [25, 32]: 80
- Plant response rating, Sunflower [26]: 10
- Plant response rating (0 to 100), Sunflower [27]: 80

SMILES: CCOc1cccc(N2CCC(n3ccc(C(C)(C)C)n3)C2=O)c1 (stereo not shown) [Compound 130]
- Plant response rating, Foxtail, Giant [1, 28]: 100
- Plant response rating, Foxtail, Giant [1, 29]: 100
- Plant response rating, Surinam grass [2, 28]: 100
- Plant response rating, Surinam grass [2, 29]: 100
- Plant response rating, Cocklebur [3, 28]: 50
- Plant response rating, Cocklebur [3, 29]: 0
- Plant response rating, Rice [4, 28]: 100
- Plant response rating, Rice [4, 29]: 100
- Plant response rating, Barnyardgrass [5, 28]: 100
- Plant response rating, Barnyardgrass [5, 29]: 100
- Plant response rating, Velvetleaf [6, 28]: 50
- Plant response rating, Velvetleaf [6, 29]: 0
- Plant response rating, Pigweed [7, 28]: 100
- Plant response rating, Pigweed [7, 29]: 100
- Plant response rating, Morningglory [8, 28]: 100
- Plant response rating, Morningglory [8, 29]: 50
- Plant response rating, Crabgrass [9, 28]: 100
- Plant response rating, Crabgrass [9, 29]: 100
- Plant response rating, Corn [10, 28]: 70
- Plant response rating, Corn [10, 29]: 50
- Plant response rating, Lambsquarters [11, 28]: 100
- Plant response rating, Lambsquarters [11, 29]: 100
- Plant response rating, Foxtail, Giant [12, 30]: 0
- Plant response rating, Surinam grass [13, 30]: 0
- Plant response rating, Surinam grass [13, 33]: 40
- Plant response rating, Cocklebur [14, 30]: 20
- Plant response rating, Cocklebur [14, 33]: 50
- Plant response rating, Wheat [15, 30]: 0
- Plant response rating, Barnyardgrass [16, 30]: 0
- Plant response rating, Barnyardgrass [16, 33]: 90
- Plant response rating, Velvetleaf [17, 30]: 0
- Plant response rating, Pigweed [18, 30]: 80
- Plant response rating, Morningglory [19, 30]: 70
- Plant response rating, Wild Oat [20, 30]: 0
- Plant response rating, Crabgrass [21, 30]: 0
- Plant response rating, Corn [22, 30]: 0
- Plant response rating, Corn [22, 33]: 0
- Plant response rating, Lambsquarters [23, 30]: 90
- Plant response rating, Blackgrass [24, 30]: 0
- Plant response rating, Blackgrass [24, 33]: 20
- Barnyardgrass plant response rating ([25]; Rate 250 g/ha): 100
- Barnyardgrass plant response rating ([25]; Rate 500 g/ha): 100
- Plant response rating, Barnyardgrass ([25]; Rate 125 g/ha): 100
- Plant response rating (scale 0 to 100), Barnyardgrass ([25]; Rate 16 g/ha, visually evaluated after 12 to 14 days, 0 = no effect, 100 = complete control): 70
- Plant response rating (scale 0 to 100), Barnyardgrass [25, 32]: 90
- Plant response rating (scale 0 to 100), Barnyardgrass ([25]; under head Rate 16 g/ha, (own rate not given), after 12 to 14 days): 50
- Plant response rating, Sunflower [26]: 60
- Plant response rating (0 to 100), Sunflower [27]: 70

SMILES: CCC(C)c1ccn(C2CCN(c3ccc(Cl)c(OC)c3)C2=O)n1 (stereo not shown) [Compound 119]
- Plant response rating, Foxtail, Giant [1, 28]: 100
- Plant response rating, Foxtail, Giant [1, 29]: 100
- Plant response rating, Surinam grass [2, 28]: 100
- Plant response rating, Surinam grass [2, 29]: 100
- Plant response rating, Cocklebur [3, 28]: 30
- Plant response rating, Cocklebur [3, 29]: 30
- Plant response rating, Rice [4, 28]: 20
- Plant response rating, Rice [4, 29]: 10
- Plant response rating, Barnyardgrass [5, 28]: 100
- Plant response rating, Barnyardgrass [5, 29]: 100
- Plant response rating, Velvetleaf [6, 28]: 70
- Plant response rating, Velvetleaf [6, 29]: 30
- Plant response rating, Pigweed [7, 28]: 100
- Plant response rating, Pigweed [7, 29]: 100
- Plant response rating, Morningglory [8, 28]: 70
- Plant response rating, Morningglory [8, 29]: 50
- Plant response rating, Crabgrass [9, 28]: 100
- Plant response rating, Crabgrass [9, 29]: 100
- Plant response rating, Corn [10, 28]: 40
- Plant response rating, Corn [10, 29]: 0
- Plant response rating, Lambsquarters [11, 28]: 100
- Plant response rating, Lambsquarters [11, 29]: 100
- Plant response rating, Foxtail, Giant [12, 30]: 0
- Plant response rating, Surinam grass [13, 30]: 20
- Plant response rating, Surinam grass [13, 33]: 50
- Plant response rating, Cocklebur [14, 30]: 90
- Plant response rating, Cocklebur [14, 33]: 100
- Plant response rating, Wheat [15, 30]: 20
- Plant response rating, Barnyardgrass [16, 30]: 30
- Plant response rating, Barnyardgrass [16, 33]: 100
- Plant response rating, Velvetleaf [17, 30]: 30
- Plant response rating, Pigweed [18, 30]: 60
- Plant response rating, Morningglory [19, 30]: 30
- Plant response rating, Wild Oat [20, 30]: 0
- Plant response rating, Crabgrass [21, 30]: 40
- Plant response rating, Corn [22, 30]: 0
- Plant response rating, Corn [22, 33]: 0
- Plant response rating, Lambsquarters [23, 30]: 90
- Plant response rating, Blackgrass [24, 30]: 0
- Plant response rating, Blackgrass [24, 33]: 0
- Barnyardgrass plant response rating ([25]; Rate 250 g/ha): 70
- Barnyardgrass plant response rating ([25]; Rate 500 g/ha): 80
- Plant response rating, Barnyardgrass ([25]; Rate 62 g/ha): 30
- Plant response rating, Barnyardgrass ([25]; Rate 125 g/ha): 70
- Plant response rating, Sunflower [26]: 40
- Plant response rating (0 to 100), Sunflower [27]: 100
